In PubChem BioAssay AID248 (DTP/NCI, 2004):
Values joined by “and” are separate entries in the source; they are usually repeats but may differ in a detail not shown here. Equal entries are not always repeated. Toxic doses and inconclusive results are not listed. Rule as the data show it: active = T/C of 150% or more; inactive = T/C below 125%.

Test system: L1210 leukemia ip in BDF1 mice, survival T/C
Assay: NCI In Vivo Anticancer Drug Screen. Data for tumor model L1210 Leukemia (intraperitoneal) in B6D2F1 (BDF1) mice
Conditions: endpoint: mean survival time, higher = longer survival
In short: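 Survival endpoint. Drug-treated group vs vehicle group, expressed as T divided by C. Tumor passaged by transplantation.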

[1] = dose: 100.0 mg/kg/injection, schedule: Q01DX001 (ip), vehicle: Klucel (hydroxypropylcellulose) (HPC)
[2] = dose: 200.0 mg/kg/injection, schedule: Q01DX001 (ip), vehicle: Klucel (hydroxypropylcellulose) (HPC)
[3] = dose: 100.0 mg/kg/injection, schedule: Q04DX003 (ip), vehicle: saline with Tween-80
[4] = dose: 200.0 mg/kg/injection, schedule: Q04DX003 (ip), vehicle: saline with Tween-80
[5] = dose: 400.0 mg/kg/injection, schedule: Q04DX003 (ip), vehicle: saline with Tween-80
[6] = dose: 100.0 mg/kg/injection, schedule: Q04DX003 (ip), vehicle: saline
[7] = dose: 200.0 mg/kg/injection, schedule: Q04DX003 (ip), vehicle: saline
[8] = dose: 50.0 mg/kg/injection, schedule: Q01DX009 (ip), vehicle: Klucel (hydroxypropylcellulose) (HPC)
[9] = dose: 100.0 mg/kg/injection, schedule: Q01DX009 (ip), vehicle: Klucel (hydroxypropylcellulose) (HPC)
[10] = dose: 100.0 mg/kg/injection, schedule: Q04DX003 (ip), vehicle: Klucel (hydroxypropylcellulose) (HPC)
[11] = dose: 200.0 mg/kg/injection, schedule: Q01DX009 (ip), vehicle: Klucel (hydroxypropylcellulose) (HPC)
[12] = dose: 200.0 mg/kg/injection, schedule: Q04DX003 (ip), vehicle: Klucel (hydroxypropylcellulose) (HPC)
[13] = dose: 400.0 mg/kg/injection, schedule: Q01DX009 (ip), vehicle: Klucel (hydroxypropylcellulose) (HPC)
[14] = dose: 400.0 mg/kg/injection, schedule: Q04DX003 (ip), vehicle: Klucel (hydroxypropylcellulose) (HPC)
[15] = dose: 100.0 mg/kg/injection, schedule: Q01DX001 (ip), vehicle: saline
[16] = dose: 200.0 mg/kg/injection, schedule: Q01DX001 (ip), vehicle: saline
[17] = dose: 400.0 mg/kg/injection, schedule: Q01DX001 (ip), vehicle: Klucel (hydroxypropylcellulose) (HPC)
[18] = dose: 100.0 mg/kg/injection, schedule: Q01DX001 (ip), vehicle: saline with Tween-80
[19] = dose: 100.0 mg/kg/injection, schedule: Q01DX009 (ip), vehicle: saline with Tween-80
[20] = dose: 200.0 mg/kg/injection, schedule: Q01DX001 (ip), vehicle: saline with Tween-80
[21] = dose: 200.0 mg/kg/injection, schedule: Q01DX009 (ip), vehicle: saline with Tween-80
[22] = dose: 400.0 mg/kg/injection, schedule: Q01DX001 (ip), vehicle: saline with Tween-80
[23] = dose: 400.0 mg/kg/injection, schedule: Q01DX009 (ip), vehicle: saline with Tween-80

Measured: T/C

CCOC(=O)CCc1c(COC(C)=O)[nH]c(C(=O)OCC)c1C
inactive: dose: 50.0 mg/kg/injection, schedule: Q01DX001 (ip), vehicle: Klucel (hydroxypropylcellulose) (HPC) 100 % of control | [1] 92 % of control | [2] 90 % of control

CCOC(=O)/C(=N\O)C(C)(C)c1ccnc2ccccc12
inactive: [3] 86 % of control | [4] 88 % of control | [5] 95 % of control

CCC(=O)c1ccc(NC(=S)Nc2ccccc2)cc1
inactive: dose: 5.0 mg/kg/injection, schedule: Q01DX009 (ip), vehicle: saline with Tween-80 104 % of control | dose: 10.0 mg/kg/injection, schedule: Q01DX009 (ip), vehicle: saline with Tween-80 97 % of control | dose: 20.0 mg/kg/injection, schedule: Q01DX009 (ip), vehicle: saline with Tween-80 101 % of control and 86 % of control | dose: 40.0 mg/kg/injection, schedule: Q01DX009 (ip), vehicle: saline with Tween-80 95 % of control and 89 % of control | dose: 80.0 mg/kg/injection, schedule: Q01DX009 (ip), vehicle: saline with Tween-80 86 % of control and 88 % of control | [6] 110 % of control | [7] 100 % of control | dose: 320.0 mg/kg/injection, schedule: Q01DX009 (ip), vehicle: saline with Tween-80 87 % of control | dose: 400.0 mg/kg/injection, schedule: Q04DX003 (ip), vehicle: saline 98 % of control

O=NN(c1ccccc1)c1ccc(N(N=O)c2ccccc2)cc1
inactive: [8] 97 % of control | [9] 96 % of control | [10] 93 % of control | [11] 100 % of control | [12] 100 % of control | [13] 96 % of control | [14] 96 % of control

CC1(C)C(=O)C(C)(C)C1O
inactive: dose: 50.0 mg/kg/injection, schedule: Q04DX003 (ip), vehicle: saline 95 % of control | dose: 75.0 mg/kg/injection, schedule: Q01DX001 (ip), vehicle: acetone 106 % of control | [15] 97 % of control | [6] 93 % of control | dose: 150.0 mg/kg/injection, schedule: Q01DX001 (ip), vehicle: acetone 104 % of control | [16] 111 % of control | [7] 87 % of control | dose: 300.0 mg/kg/injection, schedule: Q01DX001 (ip), vehicle: acetone 106 % of control

N#Cc1ccccc1CCc1ccccc1
inactive: dose: 50.0 mg/kg/injection, schedule: Q01DX001 (ip), vehicle: saline 106 % of control | [15] 102 % of control | [16] 106 % of control | dose: 400.0 mg/kg/injection, schedule: Q01DX001 (ip), vehicle: saline 98 % of control

COc1cc(/C=N/NC(=O)c2ccccc2)ccc1O
inactive: [10] 100 % of control | [12] 95 % of control | [14] 94 % of control

CCCOc1ccc(-c2nc(-c3ccc(N=Cc4ccc(N(CCOS(C)(=O)=O)CCOS(C)(=O)=O)cc4Cl)cc3)cs2)cc1
inactive: [8] 107 % of control | [1] 102 % of control | [9] 100 % of control | [2] 100 % of control | [11] 107 % of control | [17] 96 % of control

CC1B(O)Nc2nc(=S)[nH]c(N)c21 (configuration not stated)
inactive: dose: 100.0 mg/kg/injection, schedule: Q04DX003 (ip), vehicle: saline sonified 104 % of control | dose: 200.0 mg/kg/injection, schedule: Q04DX003 (ip), vehicle: saline sonified 103 % of control

COC(=O)c1ccccc1NC(=O)Nc1cc(Cl)ccc1C
inactive: [18] 87 % of control | [19] 91 % of control and 92 % of control | dose: 100.0 mg/kg/injection, schedule: Q04DX002 (ip), vehicle: saline with Tween-80 95 % of control and 88 % of control | [3] 101 % of control | [20] 90 % of control | [21] 93 % of control and 94 % of control | dose: 200.0 mg/kg/injection, schedule: Q04DX002 (ip), vehicle: saline with Tween-80 88 % of control and 91 % of control | [4] 92 % of control | [22] 88 % of control | [23] 94 % of control and 101 % of control | dose: 400.0 mg/kg/injection, schedule: Q04DX002 (ip), vehicle: saline with Tween-80 93 % of control and 91 % of control | [5] 90 % of control

Cc1cc(C)c(N(CC(=O)O)S(=O)(=O)c2ccccc2)c(C)c1N(CC(=O)O)S(=O)(=O)c1ccccc1
inactive: [19] 101 % of control | [21] 98 % of control | [23] 97 % of control

Cc1c(Cl)cccc1NC(=O)c1ccc(Cl)cc1
inactive: [9] 87 % of control | [10] 93 % of control | [11] 91 % of control | [12] 96 % of control | [13] 97 % of control | [14] 91 % of control

NC(Cc1c[nH]c2ccc(O)cc12)C(=O)O (configuration not stated)
inactive: dose: 100.0 mg/kg/injection, schedule: Q01DX001 (ip), vehicle: carboxymethylcellulose (CMC) 95 % of control | dose: 200.0 mg/kg/injection, schedule: Q01DX001 (ip), vehicle: carboxymethylcellulose (CMC) 102 % of control | dose: 400.0 mg/kg/injection, schedule: Q01DX001 (ip), vehicle: carboxymethylcellulose (CMC) 100 % of control

Cn1c(=O)c2ccccc2c2cc(Br)ccc21
inactive: dose: 100.0 mg/kg/injection, schedule: Q04DX003 (ip), vehicle: other 90 % of control | dose: 200.0 mg/kg/injection, schedule: Q04DX003 (ip), vehicle: other 92 % of control | dose: 400.0 mg/kg/injection, schedule: Q04DX003 (ip), vehicle: other 95 % of control

CCCCCCCCCCCCNC(C1=C(O)c2ccccc2C(=O)C1=O)c1ccccc1 (configuration not stated)
inactive: [18] 95 % of control | [20] 88 % of control | [22] 95 % of control

CC(C)C/C=C/C1CCCCC1 (tested in a mixture with another compound)
inactive: dose: 50.0 mg/kg/injection, schedule: Q01DX009 (ip), vehicle: saline with Tween-80 101 % of control | [19] 93 % of control | [21] 97 % of control

CCOC(=O)N/N=C/c1ccccc1
inactive: [2] 108 % of control | [17] 118 % of control

CC(=O)OC1CC(n2cc(C)c(=O)[nH]c2=O)OC1COP(=O)(N1CC1)N1CC1 (configuration not stated)
inactive: dose: 50.0 mg/kg/injection, schedule: Q04DX002 (ip), vehicle: saline 107 % of control | dose: 200.0 mg/kg/injection, schedule: Q04DX002 (ip), vehicle: saline 112 % of control
